Measurements from patent US9434693B2, “Substituted pyrazoles as N-type calcium channel blockers” (Janssen Pharmaceutica NV, priority 2012, dated 2016).
Counter-ions that a name gives are not always drawn.

Target: N-type calcium channel (α1B (Cav2.2), β3 and α2δ subunits) in stable HEK cell line (Homo sapiens (Human), UniProt Q00975)
Test: Functional assay (FDSS calcium mobilization): antagonism of N-type calcium channel
Assay type: cell-based
Details: for inhibition at 0.33 µM: HEK293; for inhibition at 0.33 µM / % Inhibition (%) at 0.33 μM: FDSS, 0.33 μM compound; for IC50: KCl (50 mM) depolarization, six-point concentration-response
Protocol: A stable cell line (HEK parent) co-expressing the α1B (Cav2.2), β3 and α2δ subunits of the N-type calcium channel subunits was used. These cells were routinely grown as monolayers in low glucose-containing Dulbecco's Modified Eagle Medium supplemented with 10% FBS, 2 mM L-glutamine, 100 I.U./mL penicillin, 100 μg/mL streptomycin, 400 μg/mL G418 and 200 μg/mL Zeocin (split ratio=1:5). Cells were maintained in 5% CO2 at 37° C. Compounds of Formula (I) were prepared as 10 mM stocks in DMSO from neat compound, if available. Otherwise, the 5 or 10 mM DMSO stock solutions provided in-house were used.
Calcium mobilization responses to KCl depolarization were evaluated by measuring the intensity of calcium-mediated fluorescent signal in the presence of BD Calcium Assay Dye (BD Biosciences, Franklin Lakes, N.J., U.S.A.), utilizing a Functional Drug Screening System (FDSS) by Hamamatsu Corporation (Bridgewater, N.J. U.S.A.).
Twenty-four hr prior to assay, cells were seeded in clear-base poly-D-lysine-coated 384-well plates (BD Biosciences) at a density of 5,000 cells per well in culture medium and grown overnight in 5% CO2 at 37° C. On the day of assay, growth media were removed, and cells were loaded with BD calcium assay dye (BD Biosciences) for 35 min at 37° C. under 5% CO2 and then for 25 min at room temp. Utilizing the FDSS, cells were exposed to representative compounds of Formula (I) at varying concentrations, and intracellular calcium was measured for 5 min prior to the addition of 50 mM KCl for an additional 3 min of measurement.
IC50 values for representative compounds of Formula (I) were determined from six-point concentration-response experiments and represent the concentration of said compound required to inhibit 50% of the maximal response. Maximal fluorescence intensity (FI) achieved upon addition of 50 mM KCl was exported from the FDSS software and further analyzed using GraphPad Prism 3.02 (Graph Pad Software Inc., San Diego, Calif., U.S.A.). Data were normalized to the maximum average counts from quadruplicate wells for each condition in the presence of 50 mM KCl and to the minimum average counts in the presence of buffer. Theoretical curves were generated using nonlinear regression curve-fitting analysis of either sigmoidal concentration-response or sigmoidal concentration-response (variable slope), and the IC50 values with the best-fit curve determined by GraphPad Prism were reported.

N-type calcium channel (α1B (Cav2.2), β3 and α2δ subunits) in stable HEK cell line, sequence (Q00975 whole entry): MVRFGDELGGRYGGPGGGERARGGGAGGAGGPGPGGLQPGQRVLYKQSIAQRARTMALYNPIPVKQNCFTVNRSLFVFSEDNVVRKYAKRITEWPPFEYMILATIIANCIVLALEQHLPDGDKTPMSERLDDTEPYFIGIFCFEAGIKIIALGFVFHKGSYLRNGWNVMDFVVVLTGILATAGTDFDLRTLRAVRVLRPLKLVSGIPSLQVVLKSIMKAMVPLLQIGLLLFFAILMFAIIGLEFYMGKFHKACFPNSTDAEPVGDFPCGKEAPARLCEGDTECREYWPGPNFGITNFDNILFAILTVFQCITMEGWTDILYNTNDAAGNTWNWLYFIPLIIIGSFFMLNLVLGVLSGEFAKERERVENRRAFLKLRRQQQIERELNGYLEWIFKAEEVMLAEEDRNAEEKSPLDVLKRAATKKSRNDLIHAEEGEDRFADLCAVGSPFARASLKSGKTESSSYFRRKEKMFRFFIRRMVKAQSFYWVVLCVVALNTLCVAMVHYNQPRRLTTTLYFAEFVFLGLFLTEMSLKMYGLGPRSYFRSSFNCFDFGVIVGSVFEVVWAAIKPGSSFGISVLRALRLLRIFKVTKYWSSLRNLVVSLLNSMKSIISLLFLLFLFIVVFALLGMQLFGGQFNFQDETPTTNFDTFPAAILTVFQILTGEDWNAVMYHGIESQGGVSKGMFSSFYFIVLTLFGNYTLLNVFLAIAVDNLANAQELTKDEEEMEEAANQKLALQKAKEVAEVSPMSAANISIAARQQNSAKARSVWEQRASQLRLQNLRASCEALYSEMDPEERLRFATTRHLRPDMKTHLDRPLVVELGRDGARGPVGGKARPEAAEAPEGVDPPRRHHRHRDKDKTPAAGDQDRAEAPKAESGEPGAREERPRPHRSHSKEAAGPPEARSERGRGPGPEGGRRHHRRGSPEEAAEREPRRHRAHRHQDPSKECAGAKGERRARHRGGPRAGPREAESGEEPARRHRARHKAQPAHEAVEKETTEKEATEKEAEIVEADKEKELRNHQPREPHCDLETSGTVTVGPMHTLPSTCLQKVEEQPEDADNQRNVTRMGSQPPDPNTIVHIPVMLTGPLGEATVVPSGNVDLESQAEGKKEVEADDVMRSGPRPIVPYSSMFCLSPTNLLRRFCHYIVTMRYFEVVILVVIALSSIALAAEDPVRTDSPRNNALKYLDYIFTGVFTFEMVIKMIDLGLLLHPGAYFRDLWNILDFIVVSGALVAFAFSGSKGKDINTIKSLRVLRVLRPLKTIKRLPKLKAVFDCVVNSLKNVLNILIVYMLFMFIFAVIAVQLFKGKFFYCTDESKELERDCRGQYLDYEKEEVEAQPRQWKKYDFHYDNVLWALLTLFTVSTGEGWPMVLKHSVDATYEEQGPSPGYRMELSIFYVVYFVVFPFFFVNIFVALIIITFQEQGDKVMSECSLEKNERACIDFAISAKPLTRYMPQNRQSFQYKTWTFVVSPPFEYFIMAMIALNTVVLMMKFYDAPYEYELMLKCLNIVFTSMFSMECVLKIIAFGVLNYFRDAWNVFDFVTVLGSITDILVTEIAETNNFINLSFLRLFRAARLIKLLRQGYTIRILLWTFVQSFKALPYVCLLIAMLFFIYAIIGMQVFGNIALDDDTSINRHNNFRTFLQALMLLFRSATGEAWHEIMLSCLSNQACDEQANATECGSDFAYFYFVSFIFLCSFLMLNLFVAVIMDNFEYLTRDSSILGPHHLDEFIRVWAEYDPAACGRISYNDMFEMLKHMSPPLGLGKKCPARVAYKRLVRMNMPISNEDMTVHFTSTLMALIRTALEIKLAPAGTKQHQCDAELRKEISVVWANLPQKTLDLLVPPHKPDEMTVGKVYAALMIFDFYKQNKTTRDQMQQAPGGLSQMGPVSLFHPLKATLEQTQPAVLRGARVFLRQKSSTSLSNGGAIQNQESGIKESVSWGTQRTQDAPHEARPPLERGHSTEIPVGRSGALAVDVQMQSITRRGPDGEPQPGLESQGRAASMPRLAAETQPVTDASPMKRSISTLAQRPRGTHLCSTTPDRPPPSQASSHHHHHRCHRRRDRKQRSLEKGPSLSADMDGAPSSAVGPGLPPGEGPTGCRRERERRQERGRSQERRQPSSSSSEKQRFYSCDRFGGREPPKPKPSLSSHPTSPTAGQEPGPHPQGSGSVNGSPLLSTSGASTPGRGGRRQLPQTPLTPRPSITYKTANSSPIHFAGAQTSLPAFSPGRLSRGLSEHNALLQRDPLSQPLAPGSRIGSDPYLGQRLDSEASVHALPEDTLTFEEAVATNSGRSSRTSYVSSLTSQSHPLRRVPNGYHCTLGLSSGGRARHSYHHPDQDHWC
N-type calcium channel (α1B (Cav2.2), β3 and α2δ subunits) in stable HEK cell line, sequence (P54284 whole entry partner): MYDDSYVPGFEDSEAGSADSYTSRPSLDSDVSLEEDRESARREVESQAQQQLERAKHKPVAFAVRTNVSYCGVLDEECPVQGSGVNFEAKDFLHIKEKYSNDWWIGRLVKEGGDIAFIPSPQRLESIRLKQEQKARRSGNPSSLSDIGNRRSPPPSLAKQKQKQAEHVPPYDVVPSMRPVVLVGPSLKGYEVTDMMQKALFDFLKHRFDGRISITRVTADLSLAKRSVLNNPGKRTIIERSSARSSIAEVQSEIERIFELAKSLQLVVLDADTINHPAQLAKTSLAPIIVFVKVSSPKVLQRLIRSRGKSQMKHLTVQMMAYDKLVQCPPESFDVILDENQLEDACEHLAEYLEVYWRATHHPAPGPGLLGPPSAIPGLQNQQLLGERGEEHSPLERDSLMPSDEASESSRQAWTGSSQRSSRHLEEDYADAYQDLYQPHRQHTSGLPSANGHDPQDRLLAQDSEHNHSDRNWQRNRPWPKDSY
N-type calcium channel (α1B (Cav2.2), β3 and α2δ subunits) in stable HEK cell line, sequence (P54289 25-1103 partner): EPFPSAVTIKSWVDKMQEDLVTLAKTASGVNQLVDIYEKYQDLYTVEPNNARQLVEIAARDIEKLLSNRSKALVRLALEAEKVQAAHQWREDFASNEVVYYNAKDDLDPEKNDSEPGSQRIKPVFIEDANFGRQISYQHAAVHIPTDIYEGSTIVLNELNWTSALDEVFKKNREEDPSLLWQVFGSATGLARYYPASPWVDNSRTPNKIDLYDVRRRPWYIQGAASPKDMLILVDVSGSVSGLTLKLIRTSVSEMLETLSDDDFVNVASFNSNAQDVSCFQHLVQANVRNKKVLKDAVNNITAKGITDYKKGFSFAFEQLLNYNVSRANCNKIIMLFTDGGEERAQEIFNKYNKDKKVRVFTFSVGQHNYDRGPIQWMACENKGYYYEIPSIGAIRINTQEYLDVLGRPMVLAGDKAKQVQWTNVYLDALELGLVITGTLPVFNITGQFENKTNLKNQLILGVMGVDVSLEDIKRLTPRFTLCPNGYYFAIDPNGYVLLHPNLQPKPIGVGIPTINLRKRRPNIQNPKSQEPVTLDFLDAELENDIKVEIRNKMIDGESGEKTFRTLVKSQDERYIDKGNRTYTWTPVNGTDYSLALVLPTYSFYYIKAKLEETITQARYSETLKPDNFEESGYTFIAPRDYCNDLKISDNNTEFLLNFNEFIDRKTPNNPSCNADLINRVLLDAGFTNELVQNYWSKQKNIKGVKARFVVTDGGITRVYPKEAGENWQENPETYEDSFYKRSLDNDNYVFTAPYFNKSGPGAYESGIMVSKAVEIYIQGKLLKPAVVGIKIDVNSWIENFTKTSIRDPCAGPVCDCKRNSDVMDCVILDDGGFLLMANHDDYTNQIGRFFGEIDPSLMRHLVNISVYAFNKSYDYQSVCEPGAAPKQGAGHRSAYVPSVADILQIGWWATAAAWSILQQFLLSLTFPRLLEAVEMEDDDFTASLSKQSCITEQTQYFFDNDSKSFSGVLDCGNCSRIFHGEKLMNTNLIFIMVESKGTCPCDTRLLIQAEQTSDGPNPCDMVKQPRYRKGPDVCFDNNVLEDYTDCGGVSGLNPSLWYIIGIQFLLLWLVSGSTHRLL

SMILES | inhibition at 0.33 µM [%] | IC50 [nM] | % Inhibition (%) at 0.33 μM [%]
COc1ccc(-c2cc(OC3CC(C)(C)SC(C)(C)C3)nn2-c2ccccc2OC)cc1 [Compound 32, 1-(2-Methoxyphenyl)-5-(4-methoxyphenyl)-3-[(2,2,6,6-tetramethyltetrahydro-2H-thiopyran-4-yl)oxy]-1H-pyrazole] | 93 | 6 | 
COc1ccccc1-n1nc(O[C@H]2CC[C@@H](N)CC2)cc1-c1ccc(Cl)cc1 [Compound 12, cis-4-{[5-(4-Chlorophenyl)-1-(2-methoxyphenyl)-1H-pyrazol-3-yl]oxy}cyclohexanamine trifluoroacetate] |  | 400 | 
COc1ccccc1-n1nc(OC2CN(C(=O)c3ccccc3)C2)cc1-c1ccc(Cl)cc1 [Compound 27, 5-(4-Chlorophenyl)-1-(2-methoxyphenyl)-3-{[1-(phenylcarbonyl)azetidin-3-yl]oxy}-1H-pyrazole] | 87 | 85 | 
COc1ccccc1-n1nc(OC2CCN(C(=O)OC(C)(C)C)CC2)cc1-c1ccc(Cl)cc1 [Compound 1, tert-Butyl 4-{[5-(4-chlorophenyl)-1-(2-methoxyphenyl)-1H-pyrazol-3-yl]oxy}piperidine-1-carboxylate] |  | 30 | 
COc1ccccc1-n1nc(OC2CCC(=O)CC2)cc1-c1ccc(Cl)cc1 [Compound 2, 4-{[5-(4-Chlorophenyl)-1-(2-methoxyphenyl)-1H-pyrazol-3-yl]oxy}cyclohexanone] |  | 28 | 
COc1ccccc1-n1nc(O[C@H]2CC(C)(C)[S@+]([O-])C(C)(C)C2)cc1-c1ccc(Cl)cc1.O=C(O)C(F)(F)F [Compound 38, (1r,4r)-4-((5-(4-chlorophenyl)-1-(2-methoxyphenyl)-1H-pyrazol-3-yl)oxy)-2,2,6,6-tetramethyltetrahydro-2H-thiopyran 1-oxide trifluoroacetate] |  | 2.7 | 98
COc1ccccc1-n1nc(OC2CCN(S(C)(=O)=O)CC2)cc1-c1ccc(Cl)cc1 [Compound 5, 4-{[5-(4-Chlorophenyl)-1-(2-methoxyphenyl)-1H-pyrazol-3-yl]oxy}-1-(methylsulfonyl)piperidine] |  | 15 | 
COc1ccccc1-n1nc(OC2CCN(C(=O)N(C)C)CC2)cc1-c1ccc(Cl)cc1 [Compound 4, 4-{[5-(4-Chlorophenyl)-1-(2-methoxyphenyl)-1H-pyrazol-3-yl]oxy}-N,N-dimethylpiperidine-1-carboxamide] |  | 14 | 
CCc1ccccc1-n1nc(OC2CCC3(CC2)OCCO3)cc1-c1ccc(Cl)cc1 [Compound 17, 5-(4-Chlorophenyl)-3-(1,4-dioxaspiro[4.5]dec-8-yloxy)-1-(2-ethylphenyl)-1H-pyrazole] |  | 81 | 
COc1ccc(-c2cc(O[C@H]3CC(C)(C)[S@+]([O-])C(C)(C)C3)nn2-c2ccccc2OC)cc1 [Compound 34, (1r,4r)-4-((1-(2-methoxyphenyl)-5-(4-methoxyphenyl)-1H-pyrazol-3-yl)oxy)-2,2,6,6-tetramethyltetrahydro-2H-thiopyran 1-oxide] |  | 4.5 | 94
COc1ccccc1-n1nc(OC2CCC(F)(F)CC2)cc1-c1ccc(Cl)cc1 [Compound 16, 5-(4-Chlorophenyl)-3-[(4,4-difluorocyclohexyl)oxy]-1-(2-methoxyphenyl)-1H-pyrazole] |  | 41 | 
COc1ccccc1-n1nc(OC2CN(S(=O)(=O)C(C)C)C2)cc1-c1ccc(Cl)cc1 [Compound 25, 5-(4-Chlorophenyl)-1-(2-methoxyphenyl)-3-({1-[(1-methylethyl)sulfonyl]azetidin-3-yl}oxy)-1H-pyrazole] | 92 | 36 | 
COc1ccccc1-n1nc(OC2CCSCC2)cc1-c1ccc(Cl)cc1 [Compound 7, 5-(4-Chlorophenyl)-1-(2-methoxyphenyl)-3-(tetrahydro-2H-thiopyran-4-yloxy)-1H-pyrazole] |  | 28 | 
COc1ccccc1-n1nc(OC2CN(C(=O)OC(C)(C)C)C2)cc1-c1ccc(Cl)cc1 [Compound 22, tert-Butyl 3-{[5-(4-chlorophenyl)-1-(2-methoxyphenyl)-1H-pyrazol-3-yl]oxy}azetidine-1-carboxylate] | 90 | 67 | 
COc1ccccc1-n1nc(O[C@H]2CC[C@@H](NC(=O)C(F)(F)F)CC2)cc1-c1ccc(Cl)cc1 [Compound 13, N-(cis-4-{[5-(4-Chlorophenyl)-1-(2-methoxyphenyl)-1H-pyrazol-3-yl]oxy}cyclohexyl)-2,2,2-trifluoroacetamide] |  | 11 | 
COc1ccccc1-n1nc(OC2CC(C)(C)C(O)C(C)(C)C2)cc1-c1ccc(Cl)cc1 (stereo not shown) [Compound 42, 4-{[5-(4-Chlorophenyl)-1-(2-methoxyphenyl)-1H-pyrazol-3-yl]oxy}-2,2,6,6-tetramethylcyclohexanol] | 78 | 39 | 
COc1ccccc1-n1nc(OC2CCN(CC(F)(F)F)CC2)cc1-c1ccc(Cl)cc1 [Compound 8, 4-{[5-(4-Chlorophenyl)-1-(2-methoxyphenyl)-1H-pyrazol-3-yl]oxy}-1-(2,2,2-trifluoroethyl)piperidine] |  | 31 | 
COc1ccccc1-n1nc(OC2CC(C)(C)S(=O)(=O)C(C)(C)C2)cc1-c1ccc(Cl)cc1 [Compound 37, 5-(4-Chlorophenyl)-1-(2-methoxyphenyl)-3-[(2,2,6,6-tetramethyl-1,1-dioxidotetrahydro-2H-thiopyran-4-yl)oxy]-1H-pyrazole] | 98 | 1.9 | 
COc1ccccc1-n1nc(OC2CC(C)(C)C(=O)C(C)(C)C2)cc1-c1ccc(Cl)cc1 [Compound 41, 4-{[5-(4-Chlorophenyl)-1-(2-methoxyphenyl)-1H-pyrazol-3-yl]oxy}-2,2,6,6-tetramethylcyclohexanone] | 92 |  | 
COc1ccccc1-n1nc(OC2CC(C)(C)S(=O)(=O)C(C)(C)C2)cc1-c1ccc(C#N)cc1 [Compound 45, 4-{1-(2-Methoxyphenyl)-3-[(2,2,6,6-tetramethyl-1,1-dioxidotetrahydro-2H-thiopyran-4-yl)oxy]-1H-pyrazol-5-yl}benzonitrile] | 99 | 2.4 | 
COc1ccccc1-n1nc(O[C@H]2CC(C)(C)[S@@+]([O-])C(C)(C)C2)cc1-c1ccc(Cl)cc1.O=C(O)C(F)(F)F [Compound 39, (1 s,4s)-4-((5-(4-chlorophenyl)-1-(2-methoxyphenyl)-1H-pyrazol-3-yl)oxy)-2,2,6,6-tetramethyltetrahydro-2H-thiopyran 1-oxide trifluoroacetate] |  | 1.5 | 99
COc1ccccc1-n1nc(OCC2C(C)(C)OC2(C)C)cc1-c1ccc(Cl)cc1 [Compound 40] | 95 | 3.1 | 
COc1ccccc1-n1nc(OC2CC(C)(C)SC(C)(C)C2)cc1-c1ccc(C#N)cc1 [Compound 44, 4-{1-(2-Methoxyphenyl)-3-[(2,2,6,6-tetramethyltetrahydro-2H-thiopyran-4-yl)oxy]-1H-pyrazol-5-yl}benzonitrile] | 87 | 12 | 
COc1ccccc1-n1nc(OC2CCN(C(=O)C(F)(F)F)CC2)cc1-c1ccc(Cl)cc1 [Compound 9, 4-{[5-(4-Chlorophenyl)-1-(2-methoxyphenyl)-1H-pyrazol-3-yl]oxy}-1-(trifluoroacetyl)piperidine] |  | 31.4 | 
COc1ccccc1-n1nc(OC2CCN(C(C)=O)CC2)cc1-c1ccc(Cl)cc1 [Compound 3, 1-Acetyl-4-{[5-(4-chlorophenyl)-1-(2-methoxyphenyl)-1H-pyrazol-3-yl]oxy}piperidine] |  | 26 | 
COc1ccccc1-n1nc(O[C@H]2CC(C)(C)[S@+]([O-])C(C)(C)C2)cc1-c1ccc(C#N)cc1 [Compound 46] |  | 14 | 90
CCc1ccccc1-n1nc(OC2CCN(S(C)(=O)=O)CC2)cc1-c1ccc(Cl)cc1 [Compound 19, 4-{[5-(4-Chlorophenyl)-1-(2-ethylphenyl)-1H-pyrazol-3-yl]oxy}-1-(methylsulfonyl)piperidine] |  | 98.5 | 
COc1ccccc1-n1nc(OC2CC(C)(C)SC(C)(C)C2)cc1-c1ccc(Cl)cc1 [Compound 36, 5-(4-Chlorophenyl)-1-(2-methoxyphenyl)-3-[(2,2,6,6-tetramethyltetrahydro-2H-thiopyran-4-yl)oxy]-1H-pyrazole] | 91 | 5.9 | 
CC(C)(C)Oc1ccccc1-n1nc(OC2CCN(S(C)(=O)=O)CC2)cc1-c1ccc(Cl)cc1 [Compound 24, 4-{[1-(2-tert-Butoxyphenyl)-5-(4-chlorophenyl)-1H-pyrazol-3-yl]oxy}-1-(methylsulfonyl)piperidine] | 57 |  | 
